Results on 20 compounds are retold here after patent US9737545B2 (MERCK SHARP & DOHME CORP., priority 2013, dated 2017).

One experiment has as its system HIV-1 (H9IIIB strain). Description: Antiviral Assays in Cell Culture (Spread), acute infection assay. Type of experiment: cell-based. Conditions: Human immunodeficiency virus 1, T-lymphoid, read-out: Viking 50% (nM). From the text: Antiviral Assays in Cell Culture (“Spread”)
Acute Infection Assay (“Spread”) data were generated using HIV-1 (H9IIIB strain) infection of MT-4 human T-lymphoid cells in 10% FBS, and according to the methods disclosed by J. P. Vacca et al, “L-735,524: An orally bioavailable human immunodeficiency virus type 1 protease inhibitor,” Proc. Natl. Acad. Sci. USA, Vol. 91, pp. 4096-4100 (April 1994).

A further experiment has as its target T1, wildtype HIV-1 protease (Human immunodeficiency virus type 1 group M subtype B, UniProt P04585).
T1 construct: preincubated with the HIV-1 protease (wild type) enzyme in assay buffer; made in house; host or cells: Escherichia coli
Description: Assay for Inhibition of Microbial Expressed HIV Protease (Pepcleav). Type of experiment: biochemical. A digest of the protocol: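 E. coli-expressed wildtype protease (20 pM final) preincubated with inhibitor 30 min at room temperature in 50 mM sodium acetate pH 5.5, 100 mM NaCl, 0.1% BSA. Reaction with 400 μM peptide substrate ran 1 h at 30° C. Inhibition derived from LC-MS/MS (MRM) product peak area.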

The structures appear in SMILES notation.

For the compound `Cc1cc2nc([C@@H]3CO[C@H](CCc4c(F)cncc4NC(=O)C[C@@H](c4ccc(F)cc4)c4ccncc4F)CN3)[nH]c2cc1C` [Example 63, (3S)—N-(4-{2-[(2R,5R)-5-(5,6-dimethyl-1H-benzimidazol-2-yl)morpholin-2-yl]ethyl}-5-fluoropyridin-3-yl)-3-(4-fluorophenyl)-3-(3-fluoropyridin-4-yl)propanamide], the EC50 with HIV-1 (H9IIIB strain) came to 63 nM.

Regarding `Cc1cc2nc([C@@H]3CO[C@H](CCc4c(F)cncc4NC(=O)C[C@@H](c4ccc(F)cc4)c4cc(F)cc(F)c4)CN3)[nH]c2cc1C` [Example 64, (3S)-3-(3,5-difluorophenyl)-N-(4-{2-[(2R,5R)-5-(5,6-dimethyl-1H-benzimidazol-2-yl)morpholin-2-yl]ethyl}-5-fluoropyridin-3-yl)-3-(4-fluorophenyl)propanamide], the EC50 with HIV-1 (H9IIIB strain) was found to be 16 nM.

Turning to `O=C(C[C@@H](c1ccc(F)cc1)c1cc(F)cc(F)c1)Nc1cncc(F)c1CC[C@@H]1CN[C@H](c2nc3ccc(Cl)cc3[nH]2)CO1` [Example 65, (3S)—N-(4-{2-[(2R,5R)-5-(6-chloro-1H-benzimidazol-2-yl)morpholin-2-yl]ethyl}-5-fluoropyridin-3-yl)-3-(3,5-difluorophenyl)-3-(4-fluorophenyl)propanamide], in the experiment on HIV-1 (H9IIIB strain), the EC50 was 13 nM.

For `Cc1ccc2nc([C@@H]3CO[C@H](CCc4c(F)cncc4NC(=O)C[C@@H](c4ccc(F)cc4)c4cc(F)cc(F)c4)CN3)[nH]c2c1` [Example 66, (3S)-3-(3,5-difluorophenyl)-N-(5-fluoro-4-{2-[(2R,5R)-5-(6-methyl-1H-benzimidazol-2-yl)morpholin-2-yl]ethyl}pyridin-3-yl)-3-(4-fluorophenyl)propanamide], the EC50 with HIV-1 (H9IIIB strain) turned out to be 22 nM.

As for `Cc1cc2nc([C@@H]3CO[C@H](CCc4c(F)cncc4NC(=O)C[C@H](c4cccc(F)c4)c4ccc(Cl)c(F)c4)CN3)[nH]c2cc1C` [Example 67, (3R)-3-(4-chloro-3-fluorophenyl)-N-(4-{2-[(2R,5R)-5-(5,6-dimethyl-1H-benzimidazol-2-yl)morpholin-2-yl]ethyl}-5-fluoropyridin-3-yl)-3-(3-fluorophenyl)propanamide], in the experiment with HIV-1 (H9IIIB strain), the EC50 was found to be 23 nM.

In the case of `Cc1cc2nc([C@@H]3CO[C@H](CCc4c(F)cncc4NC(=O)C[C@H](c4cncc(F)c4)c4ccc(Cl)c(F)c4)CN3)[nH]c2cc1C` [Example 68, (3S)-3-(4-chloro-3-fluorophenyl)-N-(4-{2-[(2R,5R)-5-(5,6-dimethyl-1H-benzimidazol-2-yl)morpholin-2-yl]ethyl}-5-fluoropyridin-3-yl)-3-(5-fluoropyridin-3-yl)propanamide], in the experiment with HIV-1 (H9IIIB strain), the EC50 is 52 nM.

On wildtype HIV-1 protease, `Cc1cc2nc([C@@H]3CO[C@H](CCc4c(F)cncc4NC(=O)C[C@H](c4ccccc4)c4ccc(F)cc4)CN3)[nH]c2cc1C` [Example 69, (3R)—N-(4-{2-[(2R,5R)-5-(5,6-dimethyl-1H-benzimidazol-2-yl)morpholin-2-yl]ethyl}-5-fluoropyridin-3-yl)-3-(4-fluorophenyl)-3-phenylpropanamide] yielded a concentration for half-maximal inhibition (IC50) of 0.01 nM. Moreover, in the experiment with HIV-1 (H9IIIB strain), the EC50 was found to be 80 nM.

On wildtype HIV-1 protease, `COC(=O)N[C@H](C(=O)Nc1ccccc1CC[C@@H]1CN[C@H](c2[nH]c3ccccc3c2C=[N+](C)C)CO1)C(c1ccccc1)c1ccccc1` [Example 90, N-[(2-{(3R,6R)-6-[2-(2-{[N-(methoxycarbonyl)-β-phenyl-L-phenylalanyl]amino}phenyl)ethyl]morpholin-3-yl}-1H-indol-3-yl)methylidene]-N-methylmethanaminium] returned a concentration for half-maximal inhibition (IC50) of 68 nM.

At wildtype HIV-1 protease, `Cc1cc2nc([C@@H]3CO[C@H](CCc4c(F)cncc4NC(=O)[C@@H](N)C(c4ccc(F)cc4)c4ccc(F)cc4)CN3)[nH]c2cc1C` [Example 92, N-(4-{2-[(2R,5R)-5-(5,6-dimethyl-1H-benzimidazol 2-yl)morpholin-2-yl]ethyl}-5-fluoropyridin-3-yl)-4-fluoro-β-(4-fluorophenyl)-L-phenylalaninamide] returned an IC50 of 0.06 nM.

For `N[C@H](C(=O)Nc1cncc(F)c1CC[C@@H]1CN[C@H](c2nc3cc(F)c(F)cc3[nH]2)CO1)C(c1ccc(F)cc1)c1ccc(F)cc1` [Example 93, N-(4-{2-[(2R,5R)-5-(5,6-difluoro-1H-benzimidazol-2-yl)morpholin-2-yl]ethyl}-5-fluoropyridin-3-yl)-4-fluoro-β-(4-fluorophenyl)-L-phenylalaninamide], the IC50 on wildtype HIV-1 protease is 0.02 nM.

On wildtype HIV-1 protease, `N[C@H](C(=O)Nc1cccc(F)c1OC[C@@H]1CN[C@H](c2nc3ccccc3[nH]2)CO1)C(c1ccccc1)c1ccccc1` [Example 94, N-(2-{[(2S,5R)-5-(1H-benzimidazol-2-yl)morpholin-2-yl]methoxy}-3-fluorophenyl)-β-phenyl-L-phenylalaninamide] yielded an IC50 of 0.22 nM.

On wildtype HIV-1 protease, `COC(=O)N[C@H](C(=O)Nc1cncc(F)c1CC[C@@H]1CN[C@H](c2nc3cc(C)c(C)cc3[nH]2)CO1)C(c1ccc(F)cc1)c1ccc(F)cc1` [Example 95, N-(4-{2-[(2R,5R)-5-(5,6-dimethyl-1H-benzimidazol-2-yl)morpholin-2-yl]ethyl}-5-fluoropyridin-3-yl)-4-fluoro-β-(4-fluorophenyl)-Nalpha-(methoxycarbonyl)-L-phenylalaninamide] registered a half-inhibitory concentration (IC50) of 0.03 nM.

In turn, `O=C(CC(c1ccc(F)cc1)c1ccc(F)cc1)Nc1cccc(F)c1CC[C@@H]1CN[C@H](c2nc3ccccc3[nH]2)CO1` [Example 97, N-(2-{2-[(2R,5R)-5-(1H-benzimidazol-2-yl)morpholin-2-yl]ethyl}-3-fluorophenyl)-3,3-bis(4-fluorophenyl) propanamide] gave an IC50 on wildtype HIV-1 protease of 0.04 nM.

Consider `O=C(C[C@@H](c1ccc(F)cc1)c1ccc(F)cc1F)Nc1cccc(F)c1CC[C@@H]1CN[C@H](c2nc3ccccc3[nH]2)CO1` [Example 98, (3S)-N-(2-{2-[(2R,5R)-5-(1H-benzimidazol-2-yl)morpholin-2-yl]ethyl}-3-fluorophenyl)-3-(2,4-difluorophenyl)-3-(4-fluorophenyl) propanamide], for which, at wildtype HIV-1 protease, the midpoint of inhibition, the IC50, lay at 0.05 nM.

`O=C(CCc1ccccc1Cl)Nc1cccc(F)c1CC[C@@H]1CN[C@H](c2nc3ccccc3[nH]2)CO1` [Example 99, N-(2-{2-[(2R,5R)-5-(1H-benzimidazol-2-yl)morpholin-2-yl]ethyl}-3-fluorophenyl)-3-(2-chlorophenyl) propanamide]: on wildtype HIV-1 protease, 11 nM corresponded to half-maximal inhibition (IC50).

Compound `O=C(CC(c1ccccc1)c1ccccc1)Nc1cccc(F)c1CC[C@@H]1CN[C@H](c2nc3ccccc3[nH]2)CO1` [Example 100, N-(2-{2-[(2R,5R)-5-(1H-benzimidazol-2-yl)morpholin-2-yl]ethyl}-3-fluorophenyl)-3,3-diphenylpropanamide] registered an IC50 at wildtype HIV-1 protease of 0.65 nM.

`N[C@H](C(=O)Nc1cncc(F)c1CC[C@@H]1CN[C@H](c2nc3cc(C(=O)NCC(F)(F)F)ccc3[nH]2)CO1)C(c1ccccc1)c1ccccc1` [Example 101, N-(5-fluoro-4-{2-[(2R,5R)-5-{5-[(2,2,2-trifluoroethyl)carbamoyl]-1H-benzimidazol-2-yl}morpholin-2-yl]ethyl}pyridin-3-yl)-β-phenyl-L-phenylalaninamide]: the IC50 against wildtype HIV-1 protease stood at 26 nM.

As for `N[C@@H](Cc1ccccc1Cl)C(=O)Nc1cccc(F)c1CC[C@@H]1CN[C@H](c2nc3ccccc3[nH]2)CO1` [Example 102, N-(2-{2-[(2R,5R)-5-(1H-benzimidazol-2-yl)morpholin-2-yl]ethyl}-3-fluorophenyl)-2-chloro-L-phenylalaninamide], the IC50 against wildtype HIV-1 protease is 17 nM.

`O=C(COc1ccccc1Cl)Nc1cccc(F)c1CC[C@@H]1CN[C@H](c2nc3ccccc3[nH]2)CO1` [Example 103, N-(2-{2-[(2R,5R)-5-(1H-benzimidazol-2-yl)morpholin-2-yl]ethyl}-3-fluorophenyl)-2-(2-chlorophenoxy) acetamide] registered an IC50 against wildtype HIV-1 protease of 31 nM.

The compound `Cc1cc2nc([C@@H]3CO[C@H](COc4c(F)cccc4NC(=O)C[C@@H](c4ccc(F)cc4)c4cc(F)cc(F)c4)CN3)[nH]c2cc1C` [Example 104, (3S)-3-(3,5-difluorophenyl)-N-(2-{[(2S,5R)-5-(5,6-dimethyl-1H-benzimidazol-2-yl)morpholin-2-yl]methoxy}-3-fluorophenyl)-3-(4-fluorophenyl) propanamide] showed a 50% inhibitory concentration (IC50) at wildtype HIV-1 protease of 1.1 nM.

What is called IC50 is the midpoint of a concentration-inhibition curve. A lower IC50 goes with inhibition by little substance.
